According to PMC1586004, “Dibenzazecine compounds with a novel dopamine/5HT2A receptor profile and 3D-QSAR analysis” (BMC Pharmacology, 2006):
Marks after values point to notes of the source that are not given here.

Tests used:
hD2L receptor [1] = target: T1, hD2L receptor (Homo sapiens, UniProt P14416); details: radioligand binding literature data; cited from earlier work
T1 construct: expressed in transfected cells

hD1 receptor [2] = target: T2, hD1 receptor (Homo sapiens, UniProt P21728); details: radioligand binding literature data; cited from earlier work
T2 construct: expressed in transfected cells
T2 sequence (P21728 whole entry): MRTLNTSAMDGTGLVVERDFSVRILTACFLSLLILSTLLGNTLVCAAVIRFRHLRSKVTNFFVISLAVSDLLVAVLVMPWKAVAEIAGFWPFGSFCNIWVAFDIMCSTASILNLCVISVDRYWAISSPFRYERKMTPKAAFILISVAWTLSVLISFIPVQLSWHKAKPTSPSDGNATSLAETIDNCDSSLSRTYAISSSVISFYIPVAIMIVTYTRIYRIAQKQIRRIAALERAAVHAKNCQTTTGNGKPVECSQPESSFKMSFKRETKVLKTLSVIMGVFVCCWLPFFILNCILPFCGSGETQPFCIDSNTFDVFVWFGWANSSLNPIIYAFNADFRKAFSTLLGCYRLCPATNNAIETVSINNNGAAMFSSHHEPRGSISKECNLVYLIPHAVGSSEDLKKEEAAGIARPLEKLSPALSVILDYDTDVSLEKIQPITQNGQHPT

h5HT2A receptor = h5HT2A receptor (Homo sapiens, UniProt P28223); test: Radioligand competition binding at h5HT2A receptors (cell membranes); details: read-out: pKi h5HT2A (converted)
Sequence of h5HT2A receptor (P28223 whole entry): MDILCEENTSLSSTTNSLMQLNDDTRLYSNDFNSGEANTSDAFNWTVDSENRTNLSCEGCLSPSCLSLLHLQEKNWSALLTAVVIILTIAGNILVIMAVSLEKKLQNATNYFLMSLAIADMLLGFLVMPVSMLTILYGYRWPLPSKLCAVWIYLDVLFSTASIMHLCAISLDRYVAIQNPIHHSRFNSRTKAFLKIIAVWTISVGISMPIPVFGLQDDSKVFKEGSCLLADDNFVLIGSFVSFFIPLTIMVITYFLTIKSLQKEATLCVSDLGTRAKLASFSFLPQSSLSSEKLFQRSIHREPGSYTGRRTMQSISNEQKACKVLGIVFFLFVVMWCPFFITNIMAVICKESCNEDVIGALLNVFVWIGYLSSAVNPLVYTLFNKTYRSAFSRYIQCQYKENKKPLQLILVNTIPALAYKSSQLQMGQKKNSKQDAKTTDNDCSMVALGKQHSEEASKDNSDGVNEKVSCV

hD1 receptor [3] = target: T2, hD1 receptor; test: Radioligand competition binding at hD1 receptors (cell membranes); details: for higher affinities for D1-like than for D2-like receptors: binding (table 2)
hD2L receptor [4] = target: T1, hD2L receptor; test: Intracellular [Ca2+] fluorescence assay, HEK293-hD2L cells; assay type: cell-based
hD1 receptor [5] = target: T2, hD1 receptor; test: Intracellular [Ca2+] fluorescence assay, HEK293-hD1 cells; assay type: cell-based
hD3 receptor = target: T3, hD3 receptor (Homo sapiens, UniProt P35462); test: Radioligand competition binding at hD3 receptors (cell membranes); details: read-out: pKi hD3 (converted)
T3 construct: expressed in transfected cells
T3 sequence (P35462 whole entry): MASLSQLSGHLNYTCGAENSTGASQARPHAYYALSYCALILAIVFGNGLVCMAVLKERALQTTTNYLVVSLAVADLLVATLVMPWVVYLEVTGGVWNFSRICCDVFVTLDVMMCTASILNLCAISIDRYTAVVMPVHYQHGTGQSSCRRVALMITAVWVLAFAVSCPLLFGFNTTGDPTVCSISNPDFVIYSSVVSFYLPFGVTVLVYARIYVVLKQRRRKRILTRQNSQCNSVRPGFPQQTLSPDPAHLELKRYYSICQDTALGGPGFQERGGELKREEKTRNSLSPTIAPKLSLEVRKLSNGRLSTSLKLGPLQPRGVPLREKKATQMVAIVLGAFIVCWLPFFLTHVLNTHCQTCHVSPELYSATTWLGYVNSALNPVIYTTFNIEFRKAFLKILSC

hD1 receptor [6] = target: T2, hD1 receptor; test: [35S]-GTPγS binding in HEK293-hD1 cell membranes; assay type: biochemical
Method: (§1) For [^35S]-GTPγS-binding, cell pellets were resuspended in 10 mM Tris-HCl/1 mM EDTA, pH 7.4, homogenized in a glass-teflon homogenizer and centrifuged for 15 min (40,000 × g, 4°C). Supernatant was discarded, and pellet was washed twice with ice-cold Tris-HCl/EDTA buffer and finally resuspended in 50 mM Tris-HCl, 4 mM MgCl2, 1 mM EDTA, 250 mM sucrose, pH 7.4, and stored at -80°C. The protein content was determined according to the Bradford method [30] with gamma immunoglobulin as standard.

hD1 receptor [7] = target: T2, hD1 receptor; test: Intracellular [cAMP], CRE-luciferase reporter gene assay, HEK293-hD1 cells; assay type: cell-based
hD4.4 receptor = target: T4, hD4.4 receptor (Homo sapiens, UniProt P21917); test: Radioligand competition binding at hD4.4 receptors (cell membranes); details: read-out: pKi hD4.4 (converted)
T4 sequence (P21917 1-419): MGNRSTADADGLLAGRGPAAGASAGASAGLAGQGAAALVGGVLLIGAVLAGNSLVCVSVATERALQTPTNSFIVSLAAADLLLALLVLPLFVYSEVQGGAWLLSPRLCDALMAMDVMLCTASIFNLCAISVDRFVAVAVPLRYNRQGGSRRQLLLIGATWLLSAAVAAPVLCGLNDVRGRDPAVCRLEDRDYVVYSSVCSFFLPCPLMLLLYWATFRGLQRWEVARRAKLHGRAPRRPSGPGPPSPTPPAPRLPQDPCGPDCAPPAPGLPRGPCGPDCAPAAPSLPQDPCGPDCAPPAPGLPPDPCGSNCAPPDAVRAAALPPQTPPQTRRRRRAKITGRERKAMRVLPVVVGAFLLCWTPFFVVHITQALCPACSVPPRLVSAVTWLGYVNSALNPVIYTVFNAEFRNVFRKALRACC

hD2L receptor [8] = target: T1, hD2L receptor; test: Radioligand competition binding at hD2L receptors (cell membranes); details: read-out: pKi hD2L (converted)
hD2L receptor [9] = target: T1, hD2L receptor; test: [35S]-GTPγS binding in HEK293-hD2L cell membranes; assay type: biochemical; details: read-out: pKi app [35S]-GTPγS binding hD2L (converted)
Method: as §1

hD2L receptor [10] = target: T1, hD2L receptor; test: Intracellular [cAMP], CRE-luciferase reporter gene assay, HEK293-hD2L cells; assay type: cell-based; details: read-out: pKi app [cAMP]i hD2L (converted)
hD5 receptor = target: T5, hD5 receptor (Homo sapiens, UniProt P21918); test: Radioligand competition binding at hD5 receptors (cell membranes); details: read-out: pKi hD5 (converted)
T5 construct: expressed in transfected cells
T5 sequence (P21918 whole entry): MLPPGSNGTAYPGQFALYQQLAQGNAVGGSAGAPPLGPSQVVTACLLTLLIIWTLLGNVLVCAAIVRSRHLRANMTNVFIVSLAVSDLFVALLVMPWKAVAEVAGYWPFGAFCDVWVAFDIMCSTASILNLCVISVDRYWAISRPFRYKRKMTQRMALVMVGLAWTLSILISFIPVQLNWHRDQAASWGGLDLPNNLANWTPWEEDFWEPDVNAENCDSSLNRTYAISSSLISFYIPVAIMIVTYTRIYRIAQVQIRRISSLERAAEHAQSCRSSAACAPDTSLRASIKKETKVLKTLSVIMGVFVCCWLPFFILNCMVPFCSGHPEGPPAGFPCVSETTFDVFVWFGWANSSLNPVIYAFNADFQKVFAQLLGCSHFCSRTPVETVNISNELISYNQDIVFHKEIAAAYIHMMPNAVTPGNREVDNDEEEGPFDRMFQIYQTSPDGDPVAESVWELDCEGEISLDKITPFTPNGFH

[11] = Schild and Clark analyses, Ca2+ assay

T1 sequence (P14416 whole entry): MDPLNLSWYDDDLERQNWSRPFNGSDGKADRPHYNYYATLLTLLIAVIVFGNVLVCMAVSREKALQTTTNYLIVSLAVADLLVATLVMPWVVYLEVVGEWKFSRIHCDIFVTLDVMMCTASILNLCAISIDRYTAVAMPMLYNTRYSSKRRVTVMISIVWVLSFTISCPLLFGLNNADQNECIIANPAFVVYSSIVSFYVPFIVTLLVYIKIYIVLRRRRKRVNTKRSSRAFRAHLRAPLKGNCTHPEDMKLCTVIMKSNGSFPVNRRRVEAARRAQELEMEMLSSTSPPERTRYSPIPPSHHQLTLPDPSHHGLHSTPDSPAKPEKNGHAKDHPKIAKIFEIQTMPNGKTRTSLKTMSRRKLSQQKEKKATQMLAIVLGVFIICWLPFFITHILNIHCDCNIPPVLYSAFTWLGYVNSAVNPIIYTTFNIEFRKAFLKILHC

Q: With `CN(C)CCC=C1c2ccccc2C=Nc2ccc(Cl)cc21` [RMI-81582, 2-chloro-11-(3-dimethylaminopropylidene)morphanthridine] as the compound, how does the “Ki-D2/Ki-5HT2A (calculated from literature)” value (hD2L receptor [1]) read?
A: Its value is 31.6^a).

Q: And the “Ki-D1/Ki-D2 (calculated from literature)” value (hD1 receptor [2])?
A: Its value is 0.05^a).

Q: With `CN1CCc2ccccc2Cc2ccc(O)cc2CC1` [LE404] as the compound, how does the Ki (h5HT2A receptor) read?
A: Its Ki is 1.62 nM.

Q: What about the “higher affinities for D1-like than for D2-like receptors” value (hD1 receptor [3]) of the same compound?
A: The value was “up to 33 fold”.

Q: What about the “nature of antagonism at D2L receptors” value (hD2L receptor [4]; [11]) of the same compound?
A: Its value is “competitive antagonistic behaviour”.

Q: And the “nature of antagonism at D1 receptors” value (hD1 receptor [5]; [11])?
A: The value was “competitive antagonistic behaviour”.

Q: What about the “D1 preference over D2L in Ca2+ studies” value (hD1 receptor [5]; apparent functional Ki, Ca2+ (table 5)) of the same compound?
A: Its value is 3 fold.

Q: Which Ki (h5HT2A receptor) does the source give for `CN1CCc2ccccc2Cc2cc(O)c(O)cc2CC1` [LE403] here?
A: The Ki was 3.98 nM.

Q: What about the Ki (hD3 receptor) of the same compound?
A: The Ki was 724 nM.

Q: What about the “higher affinities for D1-like than for D2-like receptors” value (hD1 receptor [3]) of the same compound?
A: The value was “up to 33 fold”.

Q: With `BrCCN1CCc2ccccc2Cc2[nH]c3ccccc3c2CC1` [AHAD11] as the compound, how does the Ki (hD1 receptor [3]; read-out: pKi hD1 (converted)) read?
A: The Ki was 1510 nM.

Q: For `Oc1cc2c(cc1O)[C@H]1c3ccccc3CN[C@@H]1CC2` (racemic) [Dihydrexidine, reference compound], which “increase in [35S]-GTPγS binding compared with SKF38393” value (hD1 receptor [6]; membrane preparations from HEK293-hD1 cells, 1 μM GDP) is on record?
A: The value was “significantly higher increase”.

Q: What does the source list for `CN1CCc2ccccc2Cc2[nH]c3ccccc3c2CC1` [LE300]?
A: Ki (h5HT2A receptor): 0.224 nM; Ki (hD3 receptor): 331 nM; Ki-D1/Ki-D2 (hD1 receptor [3]): 0.16; fold higher Ki using Krebs-HEPES instead of TRIS-HCl buffer, hD1 (hD1 receptor [3]): ~ 4 fold; Ki (hD1 receptor [3]; 0.2 nM [3H]SCH23390, Krebs-HEPES buffer pH 7.4, n = 3, read-out: Ki (Krebs-HEPES) hD1): 10 ± 1.15 nM; Ki (hD1 receptor [3]; 0.2 nM [3H]SCH23390, TRIS-HCl pH 7.4, n = 3, read-out: Ki (TRIS-HCl) hD1): 2.36 ± 0.13 nM; Ki (hD1 receptor [3]; heterologous competition, 0.2 nM [3H]SCH23390, Krebs-HEPES buffer pH 7.4, mean ± SEM, n ≥ 3, read-out: pKi hD1 (converted)): 10.5 nM; IC50 (hD1 receptor [7]; read-out: IC50 [cAMP] hD1 (antagonist)): 123 ± 31.1 nM; Ki (hD1 receptor [7]; read-out: pKi app [cAMP]i hD1 (converted)): 28.2 nM; Ki (hD2L receptor [4]; read-out: pKi app [Ca2+]i hD2L (converted)): 11.7 nM; Ki (hD4.4 receptor): 347 nM; Ki (hD1 receptor [6]; read-out: pKi app [35S]-GTPγS binding hD1 (converted)): 17.8 nM; Ki (hD2L receptor [8]): 64.6 nM; Ki (hD2L receptor [9]): 7.24 nM; Ki (hD2L receptor [10]): 1.86 nM; Ki (hD5 receptor): 10.2 nM; pKi app [Ca2+]i hD1 (hD1 receptor [5]): 7.22 ± 0.15; IC50 (hD1 receptor [5]; read-out: IC50 [Ca2+] hD1 (antagonist)): 718 ± 168 nM
